Test results: US20120029054A1, “RNA Interference Mediated Inhibition of GATA Binding Protein 3 (GATA3) Gene Expression Using Short Intefering Nucleic Acid (siNA)” (Merck Sharp & Dohme Corp., priority 2009, published 2012)
[invAb] = inverted abasic unit; m = 2'-O-methyl; r = 2'-OH (RNA); f = 2'-fluoro

How the values were obtained:
GATA3 mRNA [1] = experiment: GATA3 mRNA knock-down (Taqman qRT-PCR) after RNAiMax transfection of human MCF7 cells; screen and IC50 dose response; type: cell-based; details: 10 nM siNA, MCF7 cells, 24 hrs, average of 3 experiments
Experimental: MCF7 (human; ATCC cat# HTB-22): Cells were cultured at 37° C. in the presence of 5% CO2 and grown in Eagle's Minimum Essential medium with supplemented with fetal bovine serum at a final concentration of 10% and 100 μg/mL of streptomycin and 100 U/mL penicillin.
(§1) Cells were plated in all wells of a tissue-culture treated, 96-well plate at a final count of 5000 cells/well in 100 μL of the appropriate culture media. The cells were cultured for 24 hours after plating at 37° C. in the presence of 5% CO2.
(§2) After 24 hours, complexes containing siNA and RNAiMax were created as follows: A solution of RNAiMax diluted 33-fold in OPTI-MEM was prepared. In parallel, solutions of the siNAs for testing were prepared to a final concentration of 120 nM in OPTI-MEM. After incubation of RNAiMax/OPTI-MEM solution at room temperature for 5 min, an equal volume of the siNA solution and the RNAiMax solution were added together for each of the siNAs.
(§3) This solution was incubated at room temperature for 20 minutes. After incubation, 20 uL of the solution was added to each of the relevant wells. The final concentration of siNA in each well was 10 nM and the final volume of RNAiMax in each well was 0.3 ul.
(§4) The time of incubation with the RNAiMax-siNA complexes was 24 hours and there was no change in media between transfection and harvesting, unless otherwise indicated.
(§5) RNA was extracted from a 96-well plate using the TaqMan® Gene Expression Cells-to-CT™ Kit (Cat#4399002) with a modified protocol. Briefly, a 60 uL (1 plate) or 110 uL (2 plates) of the Lysis Solution with DNase I was dispensed into each well of the Lysis Buffer Plate (twin.tec full skirt plate). The lysis buffer and stop plates were stored at 4° C. until the cells were washed.
(§6) The plate was spun at 1100 rpm for 5 minutes. The culture medium was aspirated and discarded from the wells of the culture plate. The lysis was performed automatically using a BioMek FX instrument and method. After the Biomek method was completed, the lysis plate was incubated for 2 min. at room temperature. The lysis plate can be stored for 2 hours at 4° C., or at −20° C. or −80° C. for two months.
(§7) Each well of the reverse transcription plate required 10 uL of 2× reverse transcriptase Buffer, 1 uL of 20× reverse transcription enzyme and 2 uL of nuclease-free water. The reverse transcription master mix was prepared by mixing 2× reverse transcription buffer, 20× reverse transcription enzyme mix, and nuclease-free water. 13 uL of the reverse transcription master mix was dispensed into each well of the reverse transcription plate (semi-skirted). A separate reverse transcription plate was prepared for each cell plate. The plate was loaded onto a Biomek NX or Biomek FX Dual-96 and the Biomek method was run. The program is programmed to automatically added 7 uL of lysate from the cell lysis procedure described above into each well of the reverse transcription plate. The plate is sealed and spun on a centrifuge (1000 rpm for 30 seconds) to settle the contents to the bottom of the reverse transcription plate. The plate is placed in a thermocycler at 37° C. for 60 min, 95° C. for 5 min, and 4° C. until the plate is removed from the thermocycler. Upon removal, if not used immediately, the plate was frozen at −20° C.
(§8) A series of probes and primers were used to detect the various mRNA transcripts of the genes of β-Actin (human cell line only), and of GATA3 and GAPDH in mouse and human cell lines. All Taqman probes and primers for the experiments here-in described were supplied as pre-validated sets by Applied Biosystems, Inc. (see Table 2).
(§9) The assays were performed on an ABI 7900 instrument, according to the manufacturer's instructions. A TaqMan Gene Expression Master Mix (provided in the Cells-to-CT™, Applied Biosystems, Cat #4399002) was used. The PCR reactions were carried out at 50° C. for 2 min, 95° C. for 20 min followed by 40 cycles at 95° C. for 15 secs and 60° C. for 1 min. […]

GATA3 mRNA [2] = experiment: GATA3 mRNA knock-down (Taqman qRT-PCR) after RNAiMax transfection of mouse RAG cells; type: cell-based; details: 10 nM siNA, 24 hrs, average of 2 experiments
Experimental: RAG (murine; ATCC cat# CCL-142): Cells were cultured at 37° C. in the presence of 5% CO2 and grown in Eagle's Minimum Essential medium with supplemented with 10% of fetal bovine serum, 100 μg/mL of streptomycin, and 100 U/mL penicillin.
as §1, §2, §3, §4, §5, §6, §7, §8, §9

Substance	% KD Human (GATA3 mRNA [1])	% KD Mouse (GATA3 mRNA [2])
30245-DC: GATA3 siNA duplex, site 1829: sense B GccAuccAGccuGuccuuu TTB (SEQ 43), antisense AAAGGAcAGGcuGGAuGGcUU (SEQ 44) (sense GCCAUCCAGCCUGUCCUUUTT; antisense AAAGGACAGGCUGGAUGGCUU; chemistry not fully specified)	24 ± 2%	20 ± 7%
30246-DC: GATA3 siNA duplex, site 1883: sense B GGGuuAGAGcccuGcucGA TTB (SEQ 45), antisense UCGAGcAGGGcucuAAcccUU (SEQ 46) (sense GGGUUAGAGCCCUGCUCGATT; antisense UCGAGCAGGGCUCUAACCCUU; chemistry not fully specified)	−6 ± 19%	−1 ± 2%
30247-DC: GATA3 siNA duplex, site 763: sense B GGGccAcGGuGcAGAGGuA TTB (SEQ 47), antisense UACcucuGcAccGuGGcccUU (SEQ 48) (sense GGGCCACGGUGCAGAGGUATT; antisense UACCUCUGCACCGUGGCCCUU; chemistry not fully specified)	−7 ± 17%	−25 ± 14%
30248-DC: GATA3 siNA duplex, site 643: sense B cGGGccucAGccAcuccuA TTB (SEQ 49), antisense UAGGAGuGGcuGAGGcccGUU (SEQ 50) (sense CGGGCCUCAGCCACUCCUATT; antisense UAGGAGUGGCUGAGGCCCGUU; chemistry not fully specified)	18 ± 4%	1 ± 5%
30249-DC: GATA3 siNA duplex, site 673: sense B cGcAGuAcccGcuGccGGA TTB (SEQ 51), antisense UCCGGcAGcGGGuAcuGcGUU (SEQ 52) (sense CGCAGUACCCGCUGCCGGATT; antisense UCCGGCAGCGGGUACUGCGUU; sense: DNA at AGT, 2'-fluoro at CU, [invAb] at 5' end, 3' end, backbone not given here; antisense: sugars from the 5' end rrrmmfmmfmmmfmffmfmmm, backbone not given here)	1 ± 19%	−12 ± 2%
30250-DC: GATA3 siNA duplex, site 727: sense B GcAAccAcGucccGcccuA TTB (SEQ 53), antisense UAGGGcGGGAcGuGGuuGcUU (SEQ 54) (sense GCAACCACGUCCCGCCCUATT; antisense UAGGGCGGGACGUGGUUGCUU; chemistry not fully specified)	6 ± 9%	−9 ± 8%
30251-DC: GATA3 siNA duplex, site 735: sense B GucccGcccuAcuAcGGAA TTB (SEQ 55), antisense UUCcGuAGuAGGGcGGGAcUU (SEQ 56) (sense GUCCCGCCCUACUACGGAATT; antisense UUCCGUAGUAGGGCGGGACUU; sense: DNA at AGT, 2'-fluoro at CU, [invAb] at 5' end, 3' end, backbone not given here; antisense: sugars from the 5' end rrrfmfmmfmmmmfmmmmfmm, backbone not given here)	−127 ± 32%	−30 ± 18%
30252-DC: GATA3 siNA duplex, site 1084: sense B cccGGcAGGAcGAGAAAGA TTB (SEQ 57), antisense UCUuucucGuccuGccGGGUU (SEQ 58) (sense CCCGGCAGGACGAGAAAGATT; antisense UCUUUCUCGUCCUGCCGGGUU; sense: DNA at AGT, 2'-fluoro at C, [invAb] at 5' end, 3' end, backbone not given here; antisense: sugars from the 5' end rrrfffffmffffmffmmmmm, backbone not given here)	−3 ± 2%	0 ± 4%
30253-DC: GATA3 siNA duplex, site 644: sense B GGGccucAGccAcuccuAc TTB (SEQ 59), antisense GUAGGAGuGGcuGAGGcccUU (SEQ 60) (sense GGGCCUCAGCCACUCCUACTT; antisense GUAGGAGUGGCUGAGGCCCUU; chemistry not fully specified)	−1 ± 11%	−6 ± 1%
30254-DC: GATA3 siNA duplex, site 619: sense B GGcAGcAcccGGAcAcGcA TTB (SEQ 61), antisense UGCGuGuccGGGuGcuGccUU (SEQ 62) (sense GGCAGCACCCGGACACGCATT; antisense UGCGUGUCCGGGUGCUGCCUU; chemistry not fully specified)	−27 ± 15%	6 ± 5%
30255-DC: GATA3 siNA duplex, site 1085: sense B ccGGcAGGAcGAGAAAGAG TTB (SEQ 63), antisense CUCuuucucGuccuGccGGUU (SEQ 64) (sense CCGGCAGGACGAGAAAGAGTT; antisense CUCUUUCUCGUCCUGCCGGUU; sense: DNA at AGT, 2'-fluoro at C, [invAb] at 5' end, 3' end, backbone not given here; antisense: sugars from the 5' end rrrffffffmffffmffmmmm, backbone not given here)	26 ± 11%	40 ± 3%
30256-DC: GATA3 siNA duplex, site 719: sense B cGGucAAGGcAAccAcGuc TTB (SEQ 65), antisense GACGuGGuuGccuuGAccGUU (SEQ 66) (sense CGGUCAAGGCAACCACGUCTT; antisense GACGUGGUUGCCUUGACCGUU; chemistry not fully specified)	−19 ± 5%	1 ± 6%
30257-DC: GATA3 siNA duplex, site 1830: sense B ccAuccAGccuGuccuuuG TTB (SEQ 67), antisense CAAAGGAcAGGcuGGAuGGUU (SEQ 68) (sense CCAUCCAGCCUGUCCUUUGTT; antisense CAAAGGACAGGCUGGAUGGUU; chemistry not fully specified)	−3 ± 3%	−4 ± 5%
30258-DC: GATA3 siNA duplex, site 990: sense B cAcGccAGcccGcAccucu TTB (SEQ 69), antisense AGAGGuGcGGGcuGGcGuGUU (SEQ 70) (sense CACGCCAGCCCGCACCUCUTT; antisense AGAGGUGCGGGCUGGCGUGUU; chemistry not fully specified)	0 ± 4%	−12 ± 4%
30259-DC: GATA3 siNA duplex, site 713: sense B cAucGAcGGucAAGGcAAc TTB (SEQ 71), antisense GUUGccuuGAccGucGAuGUU (SEQ 72) (sense CAUCGACGGUCAAGGCAACTT; antisense GUUGCCUUGACCGUCGAUGUU; chemistry not fully specified)	36 ± 2%	60 ± 1%
30262-DC: GATA3 siNA duplex, site 1818: sense B ccGAuGcAcccGccAuccA TTB (SEQ 77), antisense UGGAuGGcGGGuGcAucGGUU (SEQ 78) (sense CCGAUGCACCCGCCAUCCATT; antisense UGGAUGGCGGGUGCAUCGGUU; chemistry not fully specified)	10 ± 11%	1 ± 7%
